From patent US11000033B2, “Ketone or oxime compound, and herbicide” (NISSAN CHEMICAL CORPORATION, priority 2014, dated 2021)

melting point: 82 to 85 °C
Structure (SMILES): CON=C(C)CC1CC(OC)=C(c2c(C)cc(OC)cc2C)C1=O (stereo not shown) [6-048]
